Measured values from patent US20080261891A1, “COMPOSITIONS AND METHODS FOR USING SYRINGOPEPTIN 25A AND RHAMNOLIPIDS” (Utah State University, priority 2007, published 2008).

Columns and labels:
M. tuberculosis H37Rv = experiment: MIC by microplate Alamar Blue assay (MABA); format: cell-based, Mycobacterium tuberculosis; details: 7H12 media
[1] = system: human embryonic kidney cells (HEK 293); experiment: Toxicity to mammalian cells, percent cell death (Nucleocounter); details: positive control
Experimental: (§1) Toxicity of the two compounds to mammalian cells was assayed in cell culture using mouse enteroendocrine cells (STC-1), human embryonic kidney cells (HEK 293; ATCC CRL-1573), and human lung fibroblasts (LL47; ATCC CCL-135). […] The human embryonic kidney cells and human lung fibroblasts were grown as per the American Type Culture Collection's recommendation, while the mouse enteroendocrine cells were grown as described by Vincent et al. (2001, Proc. Natl. Acad. Sci., 99:2392-2397). Media and sera were purchased from HyClone Laboratories (Logan, Utah). All cells were grown in 10% fetal bovine serum (FBS).
(§2) The number in the parenthesis represents the concentration of each compound in μg/mL. The percent cell death was benchmarked to 100% lysis with the positive control. The number of total cells and dead cells were counted after 6, 24, and 48 h using a Nucleocounter Automated cell counting system (New Brunswick; Edison, N.J.). Briefly, cells (STC, 200,000 cells/well; HEK 293, 200,000 cells/well; and LL47, 100,000 cells/well) were incubated in the appropriate medium for 24 h prior to addition of fresh media containing the antimicrobial compounds. After addition of the antimicrobial compound, the cell cultures were incubated at 37° C. with 5% CO2 for 6, 24, and 48 h. Cells were harvested by trypsinization using 0.25% trypsin-EDTA for 2 min. The trypsin was neutralized by addition of 200 μL of serum containing fresh medium. The cells were then harvested and transferred to 1.5 mL tubes, centrifuged (3-5 min at <100×g), and resuspended in 200 μL of fresh medium. For the total cell count, 100 μL of the suspension was added to lysis buffer (Reagent A100 in the starting kit (Cat No. M1293-0020, New Brunswick Scientific) for 30 s, which was stabilized using 100 μL of Reagent B. A positive control of completely lysed cells was used along with a negative control using sterile PBS (pH 7.4). For dead cell counts, 100 μL of cell lysate was counted without the use of lysis buffer or stabilizing buffer. All cell counts were obtained using the Nucleocounter automated cell counting system. Data were reported as the percent of cell death. The toxicity testing was done in replicate using three wells per test.

[2] = system: mouse enteroendocrine cells (STC-1); experiment: as above; details: positive control
Experimental: as §1, §2

[3] = system: human lung fibroblasts (LL47); experiment: as above; details: positive control
Experimental: as §1, §2

Compound | expected MIC range (quality control) (M. tuberculosis H37Rv) [µg/mL] | lysis [1] [%] | lysis [2] [%] | lysis [3] [%]
NNC(=O)c1ccncc1 [Isoniazid] | 0.025 to 0.1 |  |  | 
triton [reference compound] |  | 100 | 100 | 100
